One test deals with Erysiphe cichoracearum. Nature of the test: in vivo fungicidal activity on test plants, visually estimated infection. The conditions noted are these: 500 ppm.
The test system of another test is Plasmopara viticola. The test is described as above.
For another test, the system named is Septoria nodorum (BS171). The test can be described thus: in vitro inhibition of fungal growth in Cz medium. The test is classed as cell-based. The conditions noted are these: Parastagonospora nodorum, 144 h; tested at 10, 25, 50, 75, 100, 150, 200 and 250 ppm in Cz medium; growth assessed after six days. From the text: Tabulated below are a selection of compounds which gave a significant inhibition of recombinant IPMDH. These compounds were also able to inhibit Septoria nodorum in vitro. […] Approximately 10^5 conidia of Septoria nodorum BS171 were inoculated to Cz medium with the compounds and the effect on fungal growth assessed after six days.

Test [1] deals with recombinant IPMDH (3-isopropylmalate dehydrogenase). Nature of the test: biochemical screen for inhibitors of recombinant IPMDH (spectrometric NADH assay at 340 nm). Also on record: species or system Septoria nodorum. Particulars: buffer as control; for % inhibition at 3.3 ppm: first test; for % inhibition at 3.3 ppm, Repeat: repeat test. The protocol:
The recombinant IPMDH was used in a biochemical screen for inhibitors of 3-isopropylmalate dehydrogenase as follows. The assay was originally described by Parsons in 1969 (Purification and properties of β-IPMD, Parsons et al., Journal of Biological Chemistry, 244, (4), 996-1003. It is an spectrometric assay, based on the reduction of coenzyme […] measured at 340 nm. Prior to any assay the rate of production of a given unit of β-NADH was determined and only the rate of the initial linear fraction of the progress curve was taken for the evaluated assay. The reagents for the assay are: the enzyme 3-Isopropyl malate dehydrogenase, KH2PO4, MnCl2, β-NAD (nicotinamide adenine dinucleotide) and the substrate isopropylmalate. […] The mixture is incubated for two minutes at 25°C and the reaction is started by adding 140µl buffer containing the substrate IPM, KH2PO4, MnCl2, β-NAD at pH8. The rate of the increase β-NADH is monitored each minute and five data points are collected. The inhibition of the potential inhibitors are expressed in %-inhibition using buffer as a control. […] Tabulated below are a selection of compounds which gave a significant inhibition of recombinant IPMDH. These compounds were also able to inhibit Septoria nodorum in vitro. […] Approximately 10^5 conidia of Septoria nodorum BS171 were inoculated to Cz medium with the compounds and the effect on fungal growth assessed after six days.

Another test deals with Phytophthora infestans. The test is classed as in vivo. The conditions noted are these: 500 ppm; late tomato or potato blight; score = % control class.
[2] abbreviates: cucumber powdery mildew, score = % control class.
Setting [3] is: 125 ppm, vine downy mildew, score = % control class.

For orientation: MIC means the smallest concentration in the dilution series that meets the test's criterion for growth inhibition. In general, % inhibition refers to how much of the control response was suppressed.

For `O=C(Oc1ccccc1)n1c(C(F)(F)F)nc2cc(Br)c(Cl)cc21` [Compound 1, phenyl 5-bromo-6-chloro-2-trifluoromethyl-benzimidazole-1-carboxylate], the results for the Score with Erysiphe cichoracearum (setting [2]), with Plasmopara viticola (setting [3]) and in the test with Phytophthora infestans were 6 (75-84), 5 (@125 ppm) (65-74) and 7 (85-94), respectively. Moreover, the MIC in the test with Septoria nodorum (BS171) was in the range of 100 to 150 µg/mL. Besides, the “% inhibition at 3.3 ppm” value in test [1] was determined as 33%. In addition, in test [1], the “% inhibition at 3.3 ppm, Repeat” value was 56%.

For the compound `O=C(Oc1ccccc1)n1c(C(F)(F)F)nc2c(Br)c(Br)c(Br)cc21` [Compound 2, phenyl 4,5,6-tribromo-2-trifluoromethyl-benzimidazole-1-carboxylate], the Score is 7 (85-94) in the test with Erysiphe cichoracearum (setting [2]), 6 (@125 ppm) (75-84) with Plasmopara viticola (setting [3]) and 6 (75-84) in the test with Phytophthora infestans. Also, the MIC in the test on Septoria nodorum (BS171) was > 250 µg/mL. Besides, the “% inhibition at 3.3 ppm” value in test [1] amounted to 33%. In addition, the “% inhibition at 3.3 ppm, Repeat” value in test [1] turned out to be 42%.

As for `CC(C)CCC(C)OC(=O)n1c(C(F)(F)F)nc2c(Br)c(Br)c(Br)cc21` (centres unmarked) [Compound 3, 1,4-dimethylpentyl 4,5,6-tribromo-2-trifluoromethyl-benzimidazole-1-carboxylate], the Score in the test with Erysiphe cichoracearum (setting [2]) is listed as 8 (95-100). The Score in the test on Plasmopara viticola (500 ppm, vine downy mildew, score = % control class) is given as 8 (95-100). Besides, the MIC in the test with Septoria nodorum (BS171) is 100 to 150 µg/mL. Also, in test [1], the “% inhibition at 3.3 ppm” value is reported as 57% and the “% inhibition at 3.3 ppm, Repeat” value is given as 20%.

Regarding `N#Cc1sc2c(=O)c3ccccc3c(=O)c=2sc1C#N` [Compound 4, 5,10-dioxo-5,10-dihydronaphtho-[2,3-b][1,4]dithiine-2,3-dicarbonitrile], the Score with Erysiphe cichoracearum is listed as 0 (key: 0-20; 1: 20-34; 2: 35-44; 3: 45-54; 55-64; 65-74; 6: 75-84; 7: 85-94; 8: 95-100); in the test with Plasmopara viticola (125 ppm) it was 7 (@125 ppm) (key: 0-20; 1: 20-34; 2: 35-44; 3: 45-54; 55-64; 65-74; 6: 75-84; 7: 85-94; 8: 95-100); in the test on Phytophthora infestans, 7 (85-94). Moreover, in the test on Septoria nodorum (BS171), the minimum inhibitory concentration (MIC) was 0 to 10 µg/mL. Further, the “% inhibition at 3.3 ppm” value in test [1] is 41%. Also, the “% inhibition at 3.3 ppm, Repeat” value in test [1] worked out at 66%.

The record behind these values is patent EP0981626B1, “FUNGICIDAL TEST METHOD” (Bayer CropScience Limited, priority 1997, dated 1998).
